According to patent publication EP4678638A1, “NEW E3 UBIQUITIN LIGASE LIGAND, PROTEIN DEGRADATION AGENT AND USE THEREOF” (priority 2023, dated 2024):
Read-outs that look alike come from different tables or passages of the source.

What was measured:
H2228 = assay: CCK-8 proliferation, NCI-H2228 (H2228); assay type: cell-based; details: Homo sapiens, NCI-H2228; Table B6, compounds designed based on the ALK inhibitors; H2228 cells; read-out: Inhibitory activity (IC50, nM) on tumor cell proliferation, H2228
Protocol: (§1) The tumor cells used herein were cultured in a cell culture medium listed in table A1 at 37°C in an incubator with 5% CO2. Prior to experimentation, all cell lines used were correctly identified by STR profiling, and tested negative for mycoplasma contamination using a mycoplasma detection kit through routine screenings. Table A1. Tumor cells and cell culture medium used in the present disclosure
(§2) IC50 values of the compounds of the present disclosure (including the compounds in Table 1, and compounds of examples) were measured using the Meilun Cell Counting Kit-8 kit from Dalian Meilun Biotech Co., Ltd. Assay details are as follows: tumor cells were seeded in a 96-well plate at a density listed in Table A2. After 24h, 100 µL of the inoculated cells were treated with 0.5µL of the compounds of the present disclosure (including the compounds in Tables 1 and 2, and compounds of examples) at 10 different successively decreasing concentrations (starting at the highest concentration of 10µM; 5-fold serial dilutions). After the cells were treated with the compounds of the present disclosure for a period of time, the cell viability detection reagent was added to the culture medium for cell viability assessment according to the instructions provided with the CCK-8 kit. […] The growth inhibition of the compounds of the present disclosure on cells was plotted by Prism Graphpad software, and the IC50 values of the compounds of the present disclosure were calculated therefrom. […] Seeding protocol and treatment time for tumor cells

H1975 = assay: CCK-8 proliferation, NCI-H1975 (H1975); assay type: cell-based, Human; details: Homo sapiens, NCI-H1975; Table B6, compounds designed based on the ALK inhibitors; H1975 cells; read-out: Inhibitory activity (IC50, nM) on tumor cell proliferation, H1975
Outline: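 Cells seeded, then after 24 h treated with 10 concentrations (top 10 µM, 5-fold serial dilution) for a line-specific time at 37°C, 5% CO2. Viability read by CCK-8; IC50 fitted from growth-inhibition curves.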

MCF7 = assay: CCK-8 proliferation, MCF7 (MCF-7); assay type: cell-based; details: Homo sapiens, MCF7; Table B6, compounds designed based on the ALK inhibitors; MCF-7 cells; read-out: Inhibitory activity (IC50, nM) on tumor cell proliferation, MCF-7
Protocol: as §1, §2

SR = assay: CCK-8 proliferation, SR; assay type: cell-based, Human; details: Homo sapiens, SR cells, read-out: Inhibitory activity (IC50, nM) on tumor cell proliferation, SR
Protocol: as §1, §2

MM.1S = assay: CCK-8 proliferation, MM.1S; assay type: cell-based; details: Homo sapiens, MM1.S, MM.1S cells, read-out: Inhibitory activity (IC50, nM) on tumor cell proliferation, MM.1S
Protocol: as §1, §2

[1] = Table B6, compounds designed based on the ALK inhibitors
[2] = Table B10, compounds designed based on the IRAK4 inhibitors

| SMILES | IC50 (H2228) | IC50 (H1975) | IC50 (MCF7) | IC50 (SR; [1]) | IC50 (MM.1S; [1]) | IC50 (SR; [2]) | IC50 (MM.1S; [2]) |
| --- | --- | --- | --- | --- | --- | --- | --- |
| CCc1cc2c(cc1N1CCC(N3CCN(Cc4ccc(C5CCC(=O)NC5=O)cn4)CC3)CC1)C(C)(C)c1[nH]c3cc(C#N)ccc3c1C2=O (centres unmarked) [GT-07705, 8-(4-(4-((5-(2,6-dioxopiperidin-3-yl)pyridin-2-yl)methyl)piperazin-1-yl)piperidin-1-yl)-9-ethyl-6,6-dimethyl-11-oxo-6,11-dihydro-5H-benzo[b]carbazole-3-carbonitrile] | 50 to 100 nM | 500 to 1000 nM | 100 to 500 nM | 1 to 10 nM |  |  |  |
| Cc1cc(Nc2ncc(Cl)c(Nc3ccccc3S(=O)(=O)C(C)C)n2)c(OC(C)C)cc1C1CCN(Cc2cncc(N3CCC(=O)NC3=O)c2)CC1 [GT-07597, 1-(5-((4-(4-((5-chloro-4-((2-(isopropylsulfonyl)phenyl)amino)pyrimidin-2-yl)amino)-5-isopropoxy-2-methylphenyl)piperidin-1-yl)methyl)pyridin-3-yl)dihydropyrimidine-2,4(1H,3H)-dione] | 50 to 100 nM |  | 500 to 1000 nM | 10 to 50 nM | 500 to 1000 nM |  |  |
| COc1cc(N2CCC(N(C)Cc3cc(N4CCC(=O)NC4=O)ncc3F)CC2)ccc1Nc1ncc(Cl)c(Nc2ccccc2P(C)(C)=O)n1 [GT-07693, 1-(4-(((1-(4-((5-chloro-4-((2-(dimethylphosphoryl)phenyl)amino)pyrimidin-2-yl)amino)-3-methoxyphenyl)piperidin-4-yl)(methyl)amino)methyl)-5-fluoropyridin-2-yl)dihydropyrimidine-2,4(1H,3H)-dione] | 100 to 500 nM | 100 to 500 nM | 100 to 500 nM | 10 to 50 nM |  |  |  |
| Cc1cc(Nc2ncc(Cl)c(Nc3ccccc3S(=O)(=O)C(C)C)n2)c(OC(C)C)cc1C1CCN(Cc2ccnc(C3CCC(=O)NC3=O)c2)CC1 (centres unmarked) [GT-07599, 3-(4-((4-(4-((5-chloro-4-((2-(isopropylsulfonyl)phenyl)amino)pyrimidin-2-yl)amino)-5-isopropoxy-2-methylphenyl)piperidin-1-yl)methyl)pyridin-2-yl)piperidine-2,6-dione] | 100 to 500 nM |  | 100 to 500 nM | 10 to 50 nM | 500 to 1000 nM |  |  |
| COc1cc(N2CCN(Cc3cc(N4CCC(=O)NC4=O)ncc3F)CC2)ccc1Nc1ncc(Cl)c(Nc2ccccc2P(C)(C)=O)n1 [GT-07707, 1-(4-((4-(4-((5-chloro-4-((2-(dimethylphosphoryl)phenyl)amino)pyrimidin-2-yl)amino)-3-methoxyphenyl)piperazin-1-yl)methyl)-5-fluoropyridin-2-yl)dihydropyrimidine-2,4(1H,3H)-dione] | 100 to 500 nM | 500 to 1000 nM | 500 to 1000 nM | 10 to 50 nM |  |  |  |
| Cc1cc(Nc2ncc(Cl)c(Nc3ccccc3S(=O)(=O)C(C)C)n2)c(OC(C)C)cc1C1CCN(Cc2cncc(C3CCC(=O)NC3=O)c2)CC1 (centres unmarked) [GT-07601, 3-(5-((4-(4-((5-chloro-4-((2-(isopropylsulfonyl)phenyl)amino)pyrimidin-2-yl)amino)-5-isopropoxy-2-methylphenyl)piperidin-1-yl)methyl)pyridin-3-yl)piperidine-2,6-dione] | 10 to 50 nM |  | 100 to 500 nM | 10 to 50 nM | 500 to 1000 nM |  |  |
| O=C1CCC(c2ccc(CN3CCN(Cc4ccc5c(c4)nc(NC(=O)c4cccc(C(F)(F)F)c4)n5[C@H]4CC[C@@H](CO)CC4)CC3)cc2)C(=O)N1 (some centres unmarked) [GT-04978, N-(5-((4-(4-(2,6-dioxopiperidin-3-yl)benzyl)piperazin-1-yl)methyl)-1-((1s,4s)-4-(hydroxymethyl)cyclohexyl) -1H-benzo[d]imidazol-2-yl)-3-(trifluoromethyl)benzamide] |  |  |  |  |  | 100 to 500 nM | 500 to 1000 nM |
| COc1cc(N2CCN(Cc3cc(C4CCC(=O)NC4=O)cnc3F)CC2)ccc1Nc1ncc(Cl)c(Nc2ccccc2P(C)(C)=O)n1 (centres unmarked) [GT-07710, 3-(5-((4-(4-((5-chloro-4-((2-(dimethylphosphoryl)phenyl)amino)pyrimidin-2-yl)amino)-3-methoxyphenyl)piperazin-1-yl)methyl)-6-fluoropyridin-3-yl)piperidine-2,6-dione] | 500 to 1000 nM | 500 to 1000 nM | 100 to 500 nM | 10 to 50 nM |  |  |  |
| CCc1cc2c(cc1N1CCC(N3CCN(Cc4cncc(C5CCC(=O)NC5=O)c4)CC3)CC1)C(C)(C)c1[nH]c3cc(C#N)ccc3c1C2=O (centres unmarked) [GT-07706, 8-(4-(4-((5-(2,6-dioxopiperidin-3-yl)pyridin-3-yl)methyl)piperazin-1-yl)piperidin-1-yl)-9-ethyl-6,6-dimethyl-11-oxo-6,11-dihydro-5H-benzo[b]carbazole-3-carbonitrile] | 50 to 100 nM | 500 to 1000 nM | 500 to 1000 nM | 1 to 10 nM | 500 to 1000 nM |  |  |
| O=C1CCN(c2ccc(CN3CCC(n4cc(NC(=O)c5cnn6ccc(N7C[C@H]8C[C@@H]7CO8)nc56)c(C(F)F)n4)CC3)nc2)C(=O)N1 [GT-05053, 5-((1R,4R)-2-oxa-5-azabicyclo[2.2.1]heptan-5-yl)-N-(3-(difluoromethyl)-1-(1-((5-(2,4-dioxotetrahydropyrimidin-1(2H)-yl)pyridin-2-yl)methyl)piperidin-4-yl)-1H-pyrazol-4-yl)pyrazolo[1,5-a]pyrimidine-3-carboxamide] |  |  |  |  |  |  | 500 to 1000 nM |
| COc1cc(N2CCC(N3CCN(Cc4ccc(N5CCC(=O)NC5=O)cc4)CC3)CC2)ccc1Nc1ncc(Cl)c(Nc2ccccc2P(C)(C)=O)n1 [GT-07603, 1-(4-((4-(1-(4-((5-chloro-4-((2-(dimethylphosphoryl)phenyl)amino)pyrimidin-2-yl)amino)-3-methoxyphenyl)piperidin-4-yl)piperazin-1-yl)methyl)phenyl)dihydropyr imidine-2,4(1H,3H)-dione] | 10 to 50 nM | 100 to 500 nM | 100 to 500 nM | 10 to 50 nM | 500 to 1000 nM |  |  |
| COc1cc(N2CCN(Cc3ccnc(N4CCC(=O)NC4=O)c3)CC2)ccc1Nc1ncc(Cl)c(Nc2ccccc2P(C)(C)=O)n1 [GT-07708, 1-(4-((4-(4-((5-chloro-4-((2-(dimethylphosphoryl)phenyl)amino)pyrimidin-2-yl)amino)-3-methoxyphenyl)piperazin-1-yl)methyl)pyridin-2-yl)dihydropyrimidine-2,4(1H,3H)-dione] | 100 to 500 nM | 100 to 500 nM | 500 to 1000 nM | 10 to 50 nM |  |  |  |
| CCc1cc2c(cc1N1CCC(N3CCN(Cc4ccc(N5CCC(=O)NC5=O)cn4)CC3)CC1)C(C)(C)c1[nH]c3cc(C#N)ccc3c1C2=O [GT-07311, 8-(4-(4-((5-(2,4-dioxotetrahydropyrimidin-1(2H)-yl)pyridin-2-yl)methyl)piperazin-1-yl)piperidin-1-yl)-9-ethyl-6,6-dimethyl-11-oxo-6,11-dihydro-5H-benzo[b]carbazole-3-carbonitrile] | 50 to 100 nM | 500 to 1000 nM | 500 to 1000 nM | 1 to 10 nM | 500 to 1000 nM |  |  |
